Patent publication US8217063B2, “Lactam-substituted dicarboxylic acids and use thereof” (Bayer Intellectual Property GmbH, priority 2007, dated 2012)

Key:
[1] = target: T1, recombinant guanylate cyclase reporter cell line (Rattus norvegicus, UniProt P20595); experiment: sGC-activating activity in the CHO reporter cell in vitro; format: cell-based
T1 construct: expressed in transfected cells; host or cells: CHO
T1 sequence (P20595 1-619): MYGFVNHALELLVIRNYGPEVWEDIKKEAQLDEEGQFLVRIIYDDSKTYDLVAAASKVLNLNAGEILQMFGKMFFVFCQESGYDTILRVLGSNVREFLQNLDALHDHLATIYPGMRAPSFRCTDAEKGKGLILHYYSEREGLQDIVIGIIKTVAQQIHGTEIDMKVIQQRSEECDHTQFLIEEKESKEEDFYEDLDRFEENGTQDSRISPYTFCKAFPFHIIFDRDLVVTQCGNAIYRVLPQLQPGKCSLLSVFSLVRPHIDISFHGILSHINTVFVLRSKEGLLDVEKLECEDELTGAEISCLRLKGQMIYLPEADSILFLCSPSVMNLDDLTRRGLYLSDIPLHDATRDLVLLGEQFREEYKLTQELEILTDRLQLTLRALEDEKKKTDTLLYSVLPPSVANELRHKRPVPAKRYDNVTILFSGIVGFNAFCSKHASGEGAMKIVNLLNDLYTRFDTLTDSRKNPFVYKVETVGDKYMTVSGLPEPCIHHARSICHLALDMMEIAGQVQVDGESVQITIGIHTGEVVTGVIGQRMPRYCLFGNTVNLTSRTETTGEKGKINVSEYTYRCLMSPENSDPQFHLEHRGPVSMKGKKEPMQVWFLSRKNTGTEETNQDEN
T1 sequence (P19686 1-690 partner): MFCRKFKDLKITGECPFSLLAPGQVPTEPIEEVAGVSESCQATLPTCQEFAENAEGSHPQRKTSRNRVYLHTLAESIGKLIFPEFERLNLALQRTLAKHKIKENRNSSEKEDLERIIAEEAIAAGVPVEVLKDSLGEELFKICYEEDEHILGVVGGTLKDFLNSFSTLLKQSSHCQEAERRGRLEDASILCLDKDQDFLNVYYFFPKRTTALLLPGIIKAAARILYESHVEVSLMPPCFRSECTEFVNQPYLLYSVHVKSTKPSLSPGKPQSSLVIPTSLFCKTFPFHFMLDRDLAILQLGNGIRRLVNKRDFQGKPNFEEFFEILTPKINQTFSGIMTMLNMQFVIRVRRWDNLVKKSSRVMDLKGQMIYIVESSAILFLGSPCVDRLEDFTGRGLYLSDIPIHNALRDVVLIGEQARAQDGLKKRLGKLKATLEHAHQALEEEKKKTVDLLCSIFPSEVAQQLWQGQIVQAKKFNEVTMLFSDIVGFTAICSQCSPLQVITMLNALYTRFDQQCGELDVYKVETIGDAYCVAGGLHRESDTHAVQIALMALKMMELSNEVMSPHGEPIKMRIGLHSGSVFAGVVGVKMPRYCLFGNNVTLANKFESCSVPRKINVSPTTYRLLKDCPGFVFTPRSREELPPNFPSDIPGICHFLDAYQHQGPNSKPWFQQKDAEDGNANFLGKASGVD
Experimental: B-3. Action at Recombinant Guanylate Cyclase Reporter Cell Lines
The cellular action of the compounds according to the invention is determined using a recombinant guanylate cyclase reporter cell line, as described in F. Wunder et al., Anal. Biochem. 339, 104-112 (2005).

saphenous artery = experiment: Vasorelaxant effect in vitro (phenylephrine-contracted artery rings); parameters: species or system Rabbits; conditions: Oryctolagus cuniculus; rabbit saphenous artery rings, contraction induced by phenylephrine
Experimental: B-1. Vasorelaxant Effect In Vitro:
Rabbits are anesthetized and sacrificed by intravenous injection of thiopental sodium (about 50 mg/kg) and exsanguinated. The saphenous artery is removed and divided into rings 3 mm wide. The rings are mounted singly on in each case a pair of triangular hooks open at the end and made of 0.3 mm-thick special wire (Remanium®). Each ring is placed under an initial tension in 5 ml organ baths with Krebs-Henseleit solution which is at 37° C., is gassed with carbogen and has the following composition: NaCl 119 mM; KCl 4.8 mM; CaCl2×2H2O 1 mM; MgSO4×7H2O 1.4 mM; KH2PO4 1.2 mM; NaHCO3 25 mM; glucose 10 mM; bovine serum albumin 0.001%. The force of contraction is detected with Statham UC2 cells, amplified and digitized via A/D converters (DAS-1802 HC, Keithley Instruments, Munich) and recorded in parallel on chart recorders. Contractions are induced by addition of phenylephrine.
After several (generally 4) control cycles, the substance to be investigated is added in each further run in increasing dosage, and the height of the contraction achieved under the influence of the test substance is compared with the height of the contraction reached in the last preceding run. The concentration necessary to reduce the contraction reached in the preceding control by 50% is calculated from this (IC50). The standard application volume is 5 μl. The proportion of DMSO in the bath solution corresponds to 0.1%.

Heme-containing sGC = target: T2, Heme-containing sGC (Rattus norvegicus, UniProt P20595); experiment: Stimulation of recombinant soluble guanylate cyclase (sGC) in vitro, heme-containing enzyme; format: biochemical
T2 construct: made in house; host or cells: baculovirus/Sf9
T2 sequence (P20595 1-619): T1 sequence (P20595 1-619)
T2 sequence (P19686 1-690 partner): T1 sequence (P19686 1-690 partner)
From the text: (§1) B-2. Stimulation of Recombinant Soluble Guanylate Cyclase (sGC) In Vitro:
Hoenicka, E. M. Becker, H. Apeler, T. Sirichoke, H. Schroeder, R. Gerzer and J.-P. Stasch, “Purified soluble guanylyl cyclase expressed in a baculovirus/Sf9 system: Stimulation by YC-1, nitric oxide, and carbon oxide”, J. Mol. Med. 77 (1999), 14-23. The heme-free guanylate cyclase is obtained by adding Tween 20 to the sample buffer (0.5% in the final concentration).
(§2) The activation of sGC by a test substance is reported as n-fold stimulation of the basal activity.

Heme-free sGC = target: T3, Heme-free sGC (Rattus norvegicus, UniProt P20595); experiment: Stimulation of recombinant soluble guanylate cyclase (sGC) in vitro, heme-free enzyme; format: biochemical; conditions: heme-free sGC (0.5% Tween 20)
T3 construct: made in house; host or cells: baculovirus/Sf9
T3 sequence (P20595 1-619): T1 sequence (P20595 1-619)
T3 sequence (P19686 1-690 partner): T1 sequence (P19686 1-690 partner)
Experimental: as §1
Investigations on the stimulation of recombinant soluble guanylate cyclase (sGC) by the compounds according to the invention with and without sodium nitroprusside, and with and without the heme-dependent sGC inhibitor 1H-1,2,4-oxadiazole-(4,3a)-quinoxalin-1-one (ODQ) are carried out by the method described in detail in the following reference: M. Hoenicka, E. M. Becker, H. Apeler, T. Sirichoke, H. Schroeder, R. Gerzer and J.-P. Stasch, “Purified soluble guanylyl cyclase expressed in a baculovirus/Sf9 system: Stimulation by YC-1, nitric oxide, and […]”, J. Mol. Med. 77 (1999), 14-23. The heme-free guanylate cyclase is obtained by adding Tween 20 to the sample buffer (0.5% in the final concentration).
as §2

- MEC (minimum effective concentration) [1]: 1 nM
- IC50 (saphenous artery): 52 nM
- Stimulation (n-fold) of sGC, +0.1 μM DEA/NO (Heme-containing sGC; 0.01 μM Example 3): 23.3 n-fold
- Stimulation (n-fold) of sGC, +0.1 μM DEA/NO (Heme-containing sGC; 0.1 μM Example 3): 34.7 n-fold
- Stimulation (n-fold) of sGC, +0.1 μM DEA/NO (Heme-containing sGC; 1 μM Example 3): 41.6 n-fold
- Stimulation (n-fold) of sGC, +0.1 μM DEA/NO (Heme-containing sGC; 10 μM Example 3): 40.0 n-fold
- Stimulation (n-fold) of sGC, +10 μM ODQ (Heme-containing sGC; 0.01 μM Example 3): 35.1 n-fold
- Stimulation (n-fold) of sGC, +10 μM ODQ (Heme-containing sGC; 0.1 μM Example 3): 98.0 n-fold
- Stimulation (n-fold) of sGC, +10 μM ODQ (Heme-containing sGC; 1 μM Example 3): 124 n-fold
- Stimulation (n-fold) of sGC, +10 μM ODQ (Heme-containing sGC; 10 μM Example 3): 134 n-fold
- Stimulation (n-fold) of sGC, Basal (Heme-containing sGC; 0.01 μM Example 3): 6.1 n-fold
- Stimulation (n-fold) of sGC, Basal (Heme-containing sGC; 0.1 μM Example 3): 11.6 n-fold
- Stimulation (n-fold) of sGC, Basal (Heme-containing sGC; 1 μM Example 3): 16.0 n-fold
- Stimulation (n-fold) of sGC, Basal (Heme-containing sGC; 10 μM Example 3): 18.9 n-fold
- Synergy with the NO donor DEA/NO on sGC (Heme-containing sGC; combination with DEA/NO): no synergistic effect
- Stimulation (n-fold) of heme-free sGC, Basal (Heme-free sGC; 0.01 μM Example 3): 9.9 n-fold
- Stimulation (n-fold) of heme-free sGC, Basal (Heme-free sGC; 0.1 μM Example 3): 35.2 n-fold
- Stimulation (n-fold) of heme-free sGC, Basal (Heme-free sGC; 1 μM Example 3): 69.7 n-fold
- Stimulation (n-fold) of heme-free sGC, Basal (Heme-free sGC; 10 μM Example 3): 74.6 n-fold
Compound: O=C(O)c1ccc(CCC(/C=C/c2ccccc2OCCCN2CCCC2=O)Cc2ccc(C(=O)O)cc2)cc1 (single isomer, unassigned) [Example 3, 4-[(4E)-3-(4-Carboxybenzyl)-5-{2-[3-(2-oxopyrrolidin-1-yl)propoxy]phenyl}pent-4-en-1-yl]-benzoic acid]
